37 compounds from PubChem BioAssay (NCI) can be followed below.

One assay concerns A549 NSCLC. As to the kind of experiment: growth of human tumour cells (NCI), 48 h.
The next assay deals with SF-268 CNS. Kind of assay: growth of human tumour cells (NCI), 48 h.

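Tested at 5 concentrations; 48 h exposure; 96-well plates; endpoints linearly interpolated, else capped at highest concentration. The concentration for full growth arrest is given as TGI.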

As to `CC(C)=CCC[C@@H](C)C1=C(O)C(O)C(C)=C2N=C(c3ccccc3)C(=O)OC21` (some centres not stated), the TGI was more than 23 µM in the assay on A549 NSCLC and more than 25 µM in the assay with SF-268 CNS.

Consider `CCCCCCCCCCCCCCCCCCNc1ccn(C2OC(COP(=O)(O)OC3CC(n4cc(F)c(=O)[nH]c4=O)OC3COP(=O)(O)OCC3OC(n4ccc(N)nc4=O)C(O)C3O)C(O)C2O)c(=O)n1` (configuration not stated), for which, in the assay with A549 NSCLC, the TGI is more than 51 µM.

For the compound `Cc1ccc2c(c1)C(=O)/C(=N/Nc1ccc(Cl)cc1)CCO2`, the TGI in the assay on A549 NSCLC and in the assay with SF-268 CNS was more than 100 µM in each case.

Take `O=C1CC(CC(O)[C@@H]2CCCC[C@@H]2O)CC(=O)N1c1ccccc1` (some centres not stated): the TGI with A549 NSCLC and in the assay with SF-268 CNS was more than 100 µM in each case.

Consider `Nc1nc(Cl)c(N)c(NCC2(CO)CCC2)n1`, for which the TGI with A549 NSCLC and with SF-268 CNS was more than 100 µM in each case.

On to `CCC(C)C(C(=O)N/N=C1/SCC(=O)N1c1ccccc1)C(=O)N/N=C1/SCC(=O)N1c1ccccc1` (configuration not stated), for which the TGI in the assay on A549 NSCLC and with SF-268 CNS was more than 100 µM throughout.

`CC(=O)O[C@@H]1CC[C@@]2(C)C(CC[C@H]3[C@@H]4CC[C@H]([C@H](C)CCc5nc6ccc(C)cc6[nH]5)[C@@]4(C)CC[C@@H]32)C1` (some centres not stated): the TGI in the assay on A549 NSCLC and in the assay with SF-268 CNS was more than 100 µM each time.

As for `CC(=O)O[C@H]1CC[C@H]2[C@@H]3CCC4C(C)=NNC(=O)C4[C@H]3CC[C@]12C` (some centres not stated), the TGI in the assay on A549 NSCLC and in the assay with SF-268 CNS was more than 100 µM in each case.

For `CN1C2CCC1CC(CCOC(c1ccc(F)cc1)c1ccc(F)cc1)C2` (configuration not stated), the TGI in the assay on A549 NSCLC is 35.7 µM; with SF-268 CNS it was 29.2 µM.

On to `COc1ccc([N+](=O)[O-])c2c(NCCCN(C)C)c3ccccc3nc12`, for which the TGI with A549 NSCLC came to 0.895 µM; with SF-268 CNS it was 3.44 µM.

Take `CC(=O)C(I(OS(=O)(=O)c1ccc(C)cc1)c1ccccc1)=P(c1ccccc1)(c1ccccc1)c1ccccc1`: the TGI in the assay on A549 NSCLC was 72.8 µM; in the assay on SF-268 CNS, 80.4 µM.

As to `COCC(N=CN1CCCc2ccccc2[C@@H]1CCCCl)C(C)(C)C` (some centres not stated), the TGI in the assay with A549 NSCLC was 66.3 µM; in the assay with SF-268 CNS, more than 100 µM.

Regarding `CC(C)(C)O/C=C1/C(=O)OC2C[C@@H](O[Si](C)(C)C(C)(C)C)CC12` (some centres not stated), the TGI in the assay on A549 NSCLC and in the assay on SF-268 CNS was more than 100 µM each time.

On to `N#C/C(=C\c1cn(Cc2ccccc2)c2ccccc12)c1nn(-c2ccccc2)c(N)c1C#N`, for which the results for the TGI in the assay with A549 NSCLC and in the assay on SF-268 CNS were 24.6 µM and 91.7 µM, respectively.

For `Cc1cc(C)nc(NS(=O)(=O)c2ccc(NNc3c4ccccc4nc4c(C(=O)Nc5ccc(S(=O)(=O)Nc6ncccn6)cc5)cccc34)cc2)n1`, the TGI with A549 NSCLC and with SF-268 CNS was more than 100 µM throughout.

As for `ClC1(Cl)C(c2ccccc2)C1c1ccccc1` (configuration not stated), the TGI in the assay on A549 NSCLC and in the assay with SF-268 CNS was more than 100 µM in each case.

In the case of `c1ccc2c(C3CCN(CCN4CCOCC4)C3)c[nH]c2c1` (configuration not stated), the TGI with A549 NSCLC and with SF-268 CNS was more than 100 µM throughout.

In the case of `COC(=O)c1c(O)ccc2c1c1c(n2Cc2ccccc2)C(=O)c2ccccc2C1=O`, the TGI with A549 NSCLC came out at 22.6 µM; in the assay with SF-268 CNS it was 33 µM.

For `COC(=O)c1cc2c(o1)Sc1ccccc1NC2=O`, the TGI with A549 NSCLC and in the assay with SF-268 CNS was more than 100 µM throughout.

For the compound `COc1cc(S(=O)(=O)Nc2nc(-c3ccc(N4C(=O)CSC4c4cccs4)cc3)cs2)ccc1Cl` (configuration not stated), the TGI in the assay with A549 NSCLC and with SF-268 CNS was more than 100 µM throughout.

Regarding `O=C1CC(=O)NC(=NN2C(=O)/C(=C/C(=O)c3ccco3)N=C2c2ccccc2)N1`, the TGI with A549 NSCLC and in the assay on SF-268 CNS was more than 100 µM each time.

As for `COC(=O)C1=C(O)C(C(=O)OC)[C@]2(O)[C@H](C(=O)OC)[C@H]1C[C@@H](c1ccc(F)cc1)[C@H]2C(=O)OC` (some centres not stated), the TGI is more than 100 µM in the assay with A549 NSCLC and 95 µM in the assay on SF-268 CNS.

Take `O=C1CC(NC(=O)C(F)(F)F)c2c1csc2Br` (configuration not stated): the TGI with A549 NSCLC was more than 100 µM; in the assay on SF-268 CNS, 62.3 µM.

On to `CCOC(=O)CCC(NC(=O)c1ccc(CNc2nc3ccccc3nc2C(=O)OCC)cc1)C(=O)OCC` (configuration not stated), for which the TGI in the assay with A549 NSCLC and with SF-268 CNS was more than 100 µM throughout.

Regarding `CSc1nc(C)c2c(n1)SCC2`, the TGI in the assay on A549 NSCLC and with SF-268 CNS was more than 10 µM throughout.

For the compound `C=C1C(=O)C23CC1C[C@H](OC(C)=O)[C@H]2C1(C)C(OC(C)=O)C[C@H](O)C(C)(C)[C@H]1C(=O)[C@@H]3OC(C)=O` (some centres not stated), the results for the TGI with A549 NSCLC and in the assay on SF-268 CNS were 33.7 µM and 25.3 µM, respectively.

`COc1ccc2nc3c([N+](=O)[O-])ccc4c3c(c2c1)N=CN4CCCN(C)C`: the TGI came out at 13.4 µM in the assay with A549 NSCLC and 17.8 µM in the assay with SF-268 CNS.

Regarding `O=C(N/N=C/c1ccc2c(c1)OCO2)Nc1ccccc1Cl`, the TGI in the assay with A549 NSCLC is more than 100 µM; in the assay with SF-268 CNS, more than 82.5 µM.

Turning to `CC[C@](O)(CC(=O)O[C@H]1C(=O)O[C@@H]2C[C@H]3C(C)=CC(=O)[C@@H](O)[C@]3(C)[C@H]3[C@@]4(O)OC[C@]32[C@@H]1[C@@H](C)[C@H]4O)C(C)C`, in the assay on SF-268 CNS, the TGI is less than 0.01 µM.

For the compound `CC(=O)Oc1cc2c(n(C)c1=O)-c1ccccc1C2`, the TGI with A549 NSCLC and in the assay on SF-268 CNS was more than 100 µM in each case.

Consider `O=C1C(=O)c2c(oc(=O)c3ccccc23)-c2ccccc21`, for which the TGI in the assay with A549 NSCLC and in the assay on SF-268 CNS was more than 25 µM throughout.

Take `CCN(CC)C1Oc2cc3c(cc2C(c2ccc(OC)cc2)C1C)OCO3` (configuration not stated): the TGI was 74 µM in the assay on A549 NSCLC and 50.1 µM in the assay with SF-268 CNS.

Regarding `N=c1oc2ccc([N+](=O)[O-])cc2cc1C(=O)NCc1ccccc1`, the TGI in the assay on A549 NSCLC is more than 100 µM; with SF-268 CNS, 40.6 µM.

Turning to `C=C(Cl)c1c(OC)cccc1OCc1ccccc1`, the TGI with A549 NSCLC and in the assay on SF-268 CNS was more than 100 µM each time.

`COc1ccc(/C=C2\CCC(CNc3cc(C)on3)C2=O)cc1` (configuration not stated): the TGI in the assay with A549 NSCLC and in the assay with SF-268 CNS was more than 100 µM throughout.

Take `C=C1C(=O)OC2/C=C(\CO)C3OC3C3OC3(C)CC(OC(=O)/C(=C/C)CO)C12` (configuration not stated): the TGI in the assay on A549 NSCLC and in the assay with SF-268 CNS was more than 100 µM throughout.

Take `COc1cc(/C=C(\C#N)c2nc3ccccc3o2)ccc1O`: the TGI in the assay with A549 NSCLC worked out at 43.4 µM; in the assay with SF-268 CNS, 50.7 µM.
